Laboratory results from patent publication US8334253B2, “Cosmetic and dermatological formulations of MNTF peptides” (Dermacare Neuroscience Institute, priority 2008, dated 2012).

Assays:
[1] = tested on: gamma interferon-induced NO production in epidermal keratinocytes; assay: Inhibition of gamma interferon-induced nitric oxide production in keratinocytes (Griess reaction); type: cell-based; details: positive control, aminoguanidine 10 mg/mL plus gamma interferon
Source text: The study method chosen is similar to that published in the reference Tsai et al. (Tsai et al, Inhibition of inflammatory nitric oxide production and epidermis damages by Saccharomycopsis Ferment Filtrate. J Dermatol Sci 2006 June 42 (3): 249-57. Laskin, Multifunctional Role of Nitric Oxide in Inflammation, Trends Endocrinol Metab 1994; 5:377-382. Lyons, Emerging Roiles of Nitric Oxide in Inflammation, Hospital Practice, Jul. 15, 1996: 69-86.)
The objective of the study was to investigate the inhibition effect of Pal-hexapeptide (SEQ ID NO: 2, in palmitylated form) on gamma interferon-induced NO production in epidermal keratinocytes in culture.
Anti-inflammatory effect was observed as a reduction of nitric oxide production in keratinocytes. Keratinocytes were incubated 48 hours with gamma-interferon (300 U/ml) alone (as control) or with gamma-interferon together with different concentrations (0.1 μM, 1 μM, 10 μM, 100 μM and 1000 μM) of Pal-hexapeptide. Gamma interferon plus aminoguanidine (10 mg/mL) was used as positive control. The amount of NO production was detected by Griess reaction. Nitric oxide readily oxides to nitrite in aqueous medium, and this reaction was measured as nitrite accumulation in the medium. […] The optical density of the wells were read using a Tibertek Mutiskan (MCC microplate reader at a wavelength of 540 nm, subtracting the absorbance at a reference wavelength of 620 nm.) A printout of the absorbance values was generated by the plate reader, and data were entered into an EXCEL spreadsheet for analysis. The average absorbance and standard deviations were expressed as percent of control absorbances.

[2] = tested on: hyaluronic acid levels in adult human dermal fibroblast (aHDF) conditioned media; assay: Hyaluronic acid in fibroblast-conditioned medium (HA-ELISA); type: cell-based; details: positive control, 5 ng/ml, 96 h
Source text: Hyaluronic acid (hyaluronan, HA), a naturally occurring carbohydrate polymer is a key component of connective, epithelial and neural tissues. HA participates in hydrodynamics, movement and proliferation of cells. This test was designed to determine whether a sample of palmitylated and non-palmitylated MNTF hexapeptide has an effect on hyaluronic acid levels in the adult human dermal fibroblast (aHDF) conditioned media.
Adult HDF (facial, passage 2, Cell Applications, San Diego, Calif. cat.#106-05A lot#1392) were plated in high glucose phosphate-free DMEM supplemented with 5% cosmic serum from Hyclone, Utah) at 6,000 cells per well and test materials were added the following day. Test materials were: Pal-Hexapeptide (palmitylated SEQ ID NO:2 as a lyophilized powder labeled APC 341055, lot V08150A1, received from DermaCare Neuroscience Institute), type I sterile water (negative control) and basic fibroblast growth factor (bFGF, positive control). Pal-Hexapeptide was dissolved in water at 20 mg/ml. Final concentrations tested were: 400, 200, 100, 50 and 25 ug/ml for DNP and 5 ng/ml for bFGF (plate 507). After 96 h, cell culture conditioned media were collected and 100 ul aliquotes were used for the HA assay. HA assay was performed using Hyaluronan Enzyme-Linked Immunosorbent Assay Kit (HA-ELISA, cat. #K-1200) from Echelon (Salt Lake City, Utah). The HA output was measured by following the generation of a chromophoric reaction product in 96 well plate, with the use of a BioRad microplate reader at 410 nm and the effect of the test materials was determined using the formula: Absorbance 410 (sample)/Absorbance 410 (Zero HA)×100.
Adult HDF (facial, passage 2, Cell Applications, San Diego, Calif. cat.#106-05A lot#1392) were plated in high glucose phosphate-free DMEM supplemented with 5% cosmic serum from Hyclone, Utah) at 6,000 cells per well and test materials were added the following day. Test materials were: hexapeptide (SEQ ID NO:2 (non-palmitylated), lyophilized powder lot #D294, received from DermaCare Neuroscience Institute), type I sterile water (negative control) and basic fibroblast growth factor (bFGF, positive control). Pal-Hexapeptide was dissolved in water at 20 mg/ml. Final concentrations tested were: 2000, 1000, 500 and 250 ug/ml for hexapeptide and 5 ng/ml for bFGF (plate 507). After 96 h, cell culture conditioned media were collected and 100 ul aliquotes were used for the HA assay. HA assay was performed using Hyaluronan Enzyme-Linked Immunosorbent Assay Kit (HA-ELISA, cat. #K-1200) from Echelon (Salt Lake City, Utah). The HA output was measured by following the generation of a chromophoric reaction product in 96 well plate, with the use of a BioRad microplate reader at 410 nm and the effect of the test materials was determined using the formula: Absorbance 410 (sample)/Absorbance 410 (Zero HA)×100.

Row | Molecule | nitric oxide production induced by Gamma-interferon, % of the control [1] | nitric oxide production induced by Gamma-interferon, % of the control ([1]; listed as positive control) | stimulation of hyaluronic acid in the fibroblast-conditioned medium [2]
1 | N=C(N)NN [AG, aminoguanidine, reference compound] | 42% | 25% | –
2 | basic fibroblast growth factor [bFGF, reference compound] | – | – | moderately stimulatory activity
